Laboratory results taken from DBAASP.
≈ marks a conversion by molar mass, not a printed value. Values belong to the compound of their own block, whether it stands above or below them.

Key:
Experiment in all cases: ≥ marks a high value that may be exact or a test limit, other limits are often not marked, values filed in µg/mL are converted to µM
[1] = tested on: Pseudomonas aeruginosa PAO1
[2] = tested on: Staphylococcus aureus USA 300
[3] = tested on: Streptococcus pyogenes M1T1 5448
Escherichia coli BL21 = tested on: Escherichia coli BL21
[4] = tested on: Escherichia coli LMG 15862
[5] = tested on: Klebsiella aerogenes LMG 02094
[6] = tested on: Klebsiella pneumoniae LMG 20218
[7] = tested on: Pseudomonas aeruginosa LMG 6395
[8] = tested on: Acinetobacter baumannii LMG 01041
Staphylococcus aureus = tested on: Staphylococcus aureus
[9] = tested on: Bifidobacterium longum subsp. infantis
Escherichia coli = tested on: Escherichia coli
Staphylococcus aureus MR = tested on: Staphylococcus aureus MR
[10] = tested on: Pseudomonas aeruginosa ATCC 27853
[11] = tested on: Staphylococcus aureus ATCC 49476
Candida albicans = tested on: Candida albicans
[12] = tested on: Klebsiella pneumoniae ATCC 700603
[13] = tested on: Staphylococcus aureus ATCC 29737
[14] = tested on: Pseudomonas aeruginosa ATCC 9027
Klebsiella pneumoniae = tested on: Klebsiella pneumoniae
[15] = tested on: Escherichia coli ATCC 25922
Acinetobacter baumannii = tested on: Acinetobacter baumannii
Phytophthora nicotianae = tested on: Phytophthora nicotianae
[16] = tested on: Saccharomyces cerevisiae AS2.430
[17] = tested on: Staphylococcus aureus ATCC 25923
[18] = tested on: Pseudomonas aeruginosa PA14
[19] = tested on: Acinetobacter baumannii ATCC 7978
[20] = tested on: Staphylococcus aureus ATCC 29231
[21] = tested on: Klebsiella pneumoniae WGLW2
[22] = tested on: Staphylococcus aureus MW2
[23] = tested on: Enterococcus faecium E007
[24] = tested on: Enterobacter cloacae ATCC 13047
Escherichia coli BW25113 = tested on: Escherichia coli BW25113
[25] = tested on: Acinetobacter baumannii ATCC 19606
[26] = tested on: Enterococcus faecium ATCC 19434
[27] = tested on: Escherichia coli BW25113 ΔsbmA

SMILES: CC[C@H](C)[C@H](NC(=O)[C@H](C)N)C(=O)N[C@H](C(=O)N[C@@H](CCC(N)=O)C(=O)N[C@@H](CCCN=C(N)N)C(=O)N[C@H](C(=O)N[C@@H](CCCCN)C(=O)N[C@@H](CCCCN)C(=O)N[C@@H](Cc1c[nH]c2ccccc12)C(=O)N[C@@H](CC(C)C)C(=O)N[C@@H](CCCN=C(N)N)C(N)=O)[C@@H](C)CC)C(C)C [AIVQRIKKWLR]
MIC [4]: 12 µM (≈ 16.9 µg/mL) | MIC [5]: ≥ 128 µM | MIC [6]: 24 µM (≈ 33.8 µg/mL) | MIC [7]: 16 µM (≈ 22.6 µg/mL) | MIC [8]: ≥ 128 µM

SMILES: CC[C@H](C)[C@H](NC(=O)CN)C(=O)N[C@@H](Cc1ccccc1)C(=O)N[C@@H](CO)C(=O)N[C@@H](CCCCN)C(=O)N[C@@H](CC(C)C)C(=O)N[C@@H](C)C(=O)NCC(=O)N[C@@H](CCCCN)C(=O)N[C@@H](CCCCN)C(=O)N[C@@H](CC(C)C)C(=O)N[C@@H](CCCCN)C(=O)N[C@@H](CC(N)=O)C(=O)N[C@@H](CC(C)C)C(=O)N[C@@H](CC(C)C)C(=O)N[C@H](C(=O)N[C@@H](CO)C(=O)NCC(=O)N[C@@H](CC(C)C)C(N)=O)[C@@H](C)CC [GIFSKLAGKKLKNLLISGL]
MIC (Phytophthora nicotianae): 12 µM (≈ 24 µg/mL)

SMILES: CC(C)C[C@H](NC(=O)[C@H](CCC(=O)O)NC(=O)[C@@H](N)CCCCN)C(=O)N[C@@H](CCC(=O)O)C(=O)N[C@@H](CCC(=O)O)C(=O)N[C@@H](CCCCN)C(=O)O [KELEEK]
MIC [16]: ≥ 25800 µM | MIC [17]: 403 µM (≈ 313 µg/mL) | MIC [15]: 807 µM (≈ 625 µg/mL)

SMILES: CC[C@H](C)[C@H](NC(=O)[C@H](Cc1c[nH]c2ccccc12)NC(=O)[C@H](CCCCN)NC(=O)[C@@H](N)CC(C)C)C(=O)NCC(=O)N[C@@H](CCCCN)C(=O)N[C@@H](CCCCN)C(=O)N[C@H](C(=O)N[C@@H](Cc1c[nH]c2ccccc12)C(=O)N[C@@H](CCCN=C(N)N)C(=O)N[C@H](C(=O)NCC(=O)O)C(C)C)[C@@H](C)CC [LKWIGKKIWRVG]
MIC [18]: ≥ 86.3 µM | MIC [19]: ≥ 86.3 µM | MIC [20]: ≥ 86.3 µM | MIC [21]: ≥ 86.3 µM

SMILES: CC[C@H](C)[C@H](NC(=O)[C@H](Cc1c[nH]c2ccccc12)NC(=O)[C@H](CCCCN)NC(=O)[C@@H](N)CC(C)C)C(=O)NCC(=O)N[C@@H](CCCCN)C(=O)N[C@@H](Cc1c[nH]c2ccccc12)C(=O)N[C@H](C(=O)N[C@@H](Cc1c[nH]c2ccccc12)C(=O)N[C@@H](CCCN=C(N)N)C(=O)N[C@H](C(=O)NCC(=O)N[C@@H](Cc1c[nH]c2ccccc12)C(=O)N[C@@H](CC(N)=O)C(=O)N[C@@H](Cc1c[nH]c2ccccc12)C(=O)N[C@@H](CCCN=C(N)N)C(=O)O)C(C)C)[C@@H](C)CC [LKWIGKWIWRVGWNWR]
MIC [22]: 29.3 µM (≈ 64 µg/mL) | MIC [19]: ≥ 58.6 µM | MIC [20]: ≥ 58.6 µM | MIC [23]: ≥ 58.6 µM

Now from value to compound:

MIC [1]: 16 µM (≈ 48.9 µg/mL) | MIC [2]: 16 µM (≈ 48.9 µg/mL) | MIC [3]: 1 µM (≈ 3.05 µg/mL) | MIC (Escherichia coli BL21): 0.5 µM (≈ 1.53 µg/mL)
SMILES: CC[C@H](C)[C@H](NC(=O)[C@H](CCCN=C(N)N)NC(=O)[C@H](CCCCN)NC(=O)[C@@H](NC(=O)[C@H](CCCCN)NC(=O)[C@H](CCCN=C(N)N)NC(=O)[C@@H](NC(=O)[C@H](Cc1ccc(O)cc1)NC(=O)[C@H](CCCN=C(N)N)NC(=O)[C@H](CCCN=C(N)N)NC(=O)[C@H](CC(C)C)NC(=O)[C@H](CCC(=O)O)NC(=O)[C@H](CCCCN)NC(=O)[C@H](C)NC(=O)[C@@H](NC(=O)[C@H](CCCN=C(N)N)NC(=O)[C@H](CC(N)=O)NC(=O)[C@@H](NC(=O)CNC(=O)[C@H](C)N)[C@@H](C)O)[C@@H](C)CC)[C@@H](C)CC)C(C)C)C(=O)N[C@@H](C)C(=O)N[C@@H](CCCN=C(N)N)C(=O)N[C@@H](CCCCN)C(=O)N[C@@H](C)C(=O)N[C@@H](Cc1c[nH]c2ccccc12)C(=O)O [AGTNRIAKELRRYIRKVKRIARKAW]

MIC (Staphylococcus aureus): 2090 µM (≈ 2500 µg/mL) | MIC [9]: ≥ 2500 µM | MIC (Escherichia coli): 2090 µM (≈ 2500 µg/mL)
SMILES: CC[C@H](C)[C@H](NC(=O)[C@@H]1CCCN1C(=O)[C@@H](N)CCC(=O)O)C(=O)N1CCC[C@H]1C(=O)N[C@@H](CC(C)C)C(=O)N[C@@H](CCC(=O)O)C(=O)N[C@@H](CO)C(=O)N[C@@H](CCCN=C(N)N)C(=O)N[C@@H](CCC(=O)O)C(=O)N[C@@H](CCC(=O)O)C(=O)O [EPIPLESREE]

MIC (Staphylococcus aureus MR): ≥ 171 µM | MIC [10]: > 171 µM | MIC [11]: ≥ 171 µM | MIC (Candida albicans): 42.7 µM (≈ 128 µg/mL)
SMILES: CC[C@H](C)[C@H](NC(=O)[C@H](CC(C)C)NC(=O)[C@H](CCCN=C(N)N)NC(=O)[C@H](Cc1cnc[nH]1)NC(=O)[C@H](CCC(=O)O)NC(=O)[C@H](C)NC(=O)[C@H](CCCCN)NC(=O)CNC(=O)[C@H](C)NC(=O)[C@H](CO)NC(=O)[C@H](Cc1ccccc1)NC(=O)[C@H](CC(C)C)NC(=O)CNC(=O)CNC(=O)[C@@H](NC(=O)[C@@H](NC(=O)[C@H](Cc1cnc[nH]1)NC(=O)[C@H](Cc1cnc[nH]1)NC(=O)[C@@H](NC(=O)[C@@H](N)Cc1ccccc1)[C@@H](C)CC)[C@@H](C)CC)[C@@H](C)CC)C(=O)N[C@@H](CCCN=C(N)N)C(=O)N[C@@H](CCCN=C(N)N)C(=O)N[C@@H](CCCN=C(N)N)C(=O)N[C@@H](CCCN=C(N)N)C(=O)N[C@@H](CCCN=C(N)N)C(=O)O [FIHHIIGGLFSAGKAEHRLIRRRRR]

MIC [12]: 8.45 µM (≈ 15.6 µg/mL) | MIC [13]: 8.45 µM (≈ 15.6 µg/mL) | MIC [14]: 33.8 µM (≈ 62.5 µg/mL) | MIC (Klebsiella pneumoniae): 8.66 µM (≈ 16 µg/mL) | MIC [15]: 16.9 µM (≈ 31.2 µg/mL) | MIC (Acinetobacter baumannii): 16.9 µM (≈ 31.2 µg/mL)
SMILES: CC(C)C[C@H](NC(=O)[C@H](Cc1c[nH]c2ccccc12)NC(=O)[C@@H](NC(=O)[C@H](CC(C)C)NC(=O)[C@@H]1CCCN1C(=O)[C@@H](N)Cc1ccccc1)[C@@H](C)O)C(=O)N[C@@H](CCCCN)C(=O)N[C@@H](Cc1c[nH]c2ccccc12)C(=O)N[C@@H](Cc1c[nH]c2ccccc12)C(=O)N[C@@H](CCCCN)C(=O)N[C@@H](Cc1c[nH]c2ccccc12)C(=O)N[C@@H](CCCCN)C(=O)N[C@@H](CCCCN)C(N)=O [FPLTWLKWWKWKK]

MIC [12]: 2 µM (≈ 4.69 µg/mL) | MIC [24]: 8 µM (≈ 18.8 µg/mL) | MIC (Escherichia coli BW25113): 2 µM (≈ 4.69 µg/mL) | MIC [10]: 32 µM (≈ 75 µg/mL) | MIC [25]: 4 µM (≈ 9.38 µg/mL) | MIC [17]: 12 µM (≈ 28.1 µg/mL) | MIC [26]: ≥ 32 µM | MIC [27]: 4 µM (≈ 9.38 µg/mL)
SMILES: CC[C@H](C)[C@H](NC(=O)[C@H](CCCN=C(N)N)NC(=O)[C@@H](N)Cc1c[nH]c2ccccc12)C(=O)N[C@@H](CCCN=C(N)N)C(=O)N[C@@H](CCCN=C(N)N)C(=O)N[C@@H](CCCN=C(N)N)C(=O)N[C@@H](Cc1c[nH]c2ccccc12)C(=O)N1CCC[C@H]1C(=O)N[C@@H](CCCN=C(N)N)C(=O)N[C@@H](CC(C)C)C(=O)N1CCC[C@H]1C(=O)N[C@@H](CCCN=C(N)N)C(=O)N1CCC[C@H]1C(=O)N[C@@H](CCCN=C(N)N)C(=O)N[C@@H](Cc1c[nH]c2ccccc12)C(=O)N[C@@H](CCCN=C(N)N)C(=O)O [WRIRRRWPRLPRPRWR]
